In brackets after ≈: the same amount, converted by molar mass.
What was measured:
[1] = system: Streptococcus sp.; assay: In vitro antibacterial evaluation: minimum inhibitory concentration (MIC), broth dilution method; type: cell-based; conditions: broth dilution, 18 hours at 35° C.
Procedure, shortened: (§1)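 Susceptibility determined by NCCLS-recommended broth dilution (M7-A2), Muller-Hinton II […]. Concentration span 64-0.06 μg/mL, inoculum 5×10^5 CFU/mL. Isolates include strains resistant to methicillin, penicillin and/or vancomycin.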

[2] = system: Staphylococcus sp.; assay: as above; type: cell-based; conditions: for MIC Staphylococcus aureus (ATCC 29213): strain ATCC 29213; for MIC Staphylococcus aureus (GC 3051): strain GC 3051; for MIC Staphylococcus aureus (GC 3053): strain GC 3053; for MIC Staphylococcus aureus (GC 4541): strain GC 4541; for MIC Staphylococcus aureus (GC 4542): strain GC 4542; for MIC Staphylococcus aureus (GC 4545): strain GC 4545; for MIC Staphylococcus haemolyticus (GC 4546): strain GC 4546; for MIC Coagulase Negative Staphylococcus (GC 4547): strain GC 4547; for MIC Coagulase Negative Staphylococcus (GC 4548): strain GC 4548; for MIC Coagulase Negative Staphylococcus (GC 4549): strain GC 4549; for MIC Coagulase Negative Staphylococcus (GC 4551): strain GC 4551; for MIC Coagulase Negative Staphylococcus (GC 6257): strain GC 6257
Procedure, shortened: as §1

[3] = system: Enterococcus sp.; assay: as above; type: cell-based; conditions: broth dilution, 18 hours at 35° C.
Procedure, shortened: as §1

[4] = system: Escherichia coli; assay: as above; type: cell-based; conditions: 5×10^5 CFU/mL, 18 hours at 35° C.
Procedure, shortened: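 Using Muller-Hinton II […] and an inoculum of 5×10^5 CFU/mL, antibiotic dilutions from 64 down to 0.06 μg/mL were tested following NCCLS M7-A2. The MIC is the lowest concentration inhibiting growth, including in methicillin-, penicillin- or vancomycin-resistant clinical isolates.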

[5] = system: Staphylococcus aureus-SMITH (GC 4543); assay: Acute lethal infection in mice (ED50); type: in vivo; conditions: female CD-1 mice, intraperitoneal challenge, intravenous dose 30 min. after infection, 7 day survival ratios
Procedure, shortened: (§2)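 IP bacterial challenge, female CD-1 mice; inoculum lethal to untreated controls in 24-48 hr. IV dosing in saline or 5% dextrose 30 min post-infection, 5 mice/dose. ED50 from 7-day survival, 3 tests pooled.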

[6] = system: Enterococcus faecalis (GC 6189), vancomycin resistant strain; assay: Acute lethal infection in mice (ED50); type: in vivo; conditions: female CD-1 mice, intraperitoneal challenge, intravenous dose 30 min. after infection, 7 day survival ratios
Procedure, shortened: as §2

[7] = system: Streptococcus pneumoniae (GC 1894), penicillin resistant strain; assay: Acute lethal infection in mice (ED50); type: in vivo; conditions: female CD-1 mice, intraperitoneal challenge, intravenous dose 30 min. after infection, 7 day survival ratios
Procedure, shortened: as §2

[8] = Anatomic pathology (heart and kidney histopathology) in mice; type: in vivo, CD-1 mice; conditions: 20 mg/kg intravenously daily for 9 days, microscopic histopathology on day 10
Procedure, shortened: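 Histopathology on H&E-stained, paraffin-embedded sections, subjectively scored (slight, mild, moderate, marked, severe) relative to untreated controls. Dosing: glycopeptide antibiotics 20 mg/kg intravenously once daily ×9 days in 20-day-old CD-1 mice, n=5 per group including vehicle.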

[9] = type: in vivo; conditions: mice, 20 mg/kg intravenously daily for 9 days, serum on day 10
Experimental: 20-day-old CD-1 mice were divided into a vehicle control group (5 mice) and a treatment group (5 mice). Samples of glycopeptide antibiotics were administered at 20 mg/kg intravenously daily for 9 days. Animals were necropsied on day 10 Sera were analyzed for BUN (blood urea nitrogen), creatinine, AST (aspartic aminotransferase), and ALT (alanine aminotransferase) by routine, standard, automated methods using an Hitachi 747 chemistry analyzer.

[10] = broth dilution, 18 hours at 35° C.

CC(c1ccccc1)C1NC(=O)CNC(=O)C(CO)NC(=O)C(C(O)C2CNC(=N)N2C2OC(CO)C(O)C(O)C2O)NC(=O)C(C(O)C2CNC(=N)N2)NC(=O)C(Cc2ccc(OC3OC(CO)C(OC4OC5COC6(OC5C(O)C4O)C4CC5CC(C4)CC6C5)C(O)C3O)cc2)NC1=O (stereo not drawn) [Example 105, Cyclo[glycyl-β-methylphenylalanyl-O-[4-O-[4,6-O-(2-adamantylidene)hexopyranosyl]hexopyranosyl]tyrosyl-3-(2-iminoimidazolidin-4-yl)seryl-3-(3-hexopyranosyl-2-iminoimidazoliclin-4-yl)serylseryl]]
MIC Streptococcus agalactiae (GC 4564) ([1]; Streptococcus agalactiae (GC 4564)): <0.06 to 0.25 µg/mL | MIC Streptococcus pneumoniae (ATCC 6301) ([1]; Streptococcus pneumoniae (ATCC 6301)): <0.06 µg/mL | MIC Streptococcus pneumoniae (GC 1894) ([1]; Streptococcus pneumoniae (GC 1894)): <0.06 µg/mL | MIC Streptococcus pneumoniae (GC 4565) ([1]; Streptococcus pneumoniae (GC 4565)): <0.06 µg/mL | MIC Streptococcus pyogenes (GC 4563) ([1]; Streptococcus pyogenes (GC 4563)): <0.06 to 0.12 µg/mL | MIC Streptococcus agalactiae (GC 4564) ([1]; 5×10^5 CFU/mL): <0.06 to 0.25 µg/mL | MIC Streptococcus pneumoniae (GC 1894) ([1]; 5×10^5 CFU/mL): <0.06 µg/mL | MIC Streptococcus pneumoniae (GC 4565) ([1]; 5×10^5 CFU/mL): <0.06 µg/mL | MIC Streptococcus pneumonine (ATCC 6301) ([1]; 5×10^5 CFU/mL): <0.06 µg/mL | MIC Streptococcus pyogenes (GC 4563) ([1]; 5×10^5 CFU/mL): <0.06 to 0.12 µg/mL | MIC Staphylococcus aureus (ATCC 29213) [2]: <0.5 to 1 µg/mL | MIC Staphylococcus aureus (ATCC 29213) [2, 10]: <0.5 to 1 µg/mL | MIC Staphylococcus aureus (GC 3051) [2]: 0.5 to 1 µg/mL | MIC Staphylococcus aureus (GC 3051) [2, 10]: 0.5 to 1 µg/mL | MIC Staphylococcus aureus (GC 3053) [2]: 1 to 2 µg/mL | MIC Staphylococcus aureus (GC 3053) [2, 10]: 1 to 2 µg/mL | MIC Staphylococcus aureus (GC 4541) [2]: <0.5 to 1 µg/mL | MIC Staphylococcus aureus (GC 4541) [2, 10]: <0.5 to 1 µg/mL | MIC Staphylococcus aureus (GC 4542) [2]: 0.5 to 1 µg/mL | MIC Staphylococcus aureus (GC 4542) [2, 10]: 0.5 to 1 µg/mL | MIC Staphylococcus aureus (GC 4545) [2]: <0.5 to 1 µg/mL | MIC Staphylococcus aureus (GC 4545) [2, 10]: <0.5 to 1 µg/mL | MIC Staphylococcus haemolyticus (GC 4546) [2]: <0.5 to 1 µg/mL | MIC Staphylococcus haemolyticus (GC 4546) [2, 10]: <0.5 to 1 µg/mL | MIC Coagulase Negative Staphylococcus (GC 4547) [2]: 0.5 to 1 µg/mL | MIC Coagulase Negative Staphylococcus (GC 4547) [2, 10]: 0.5 to 1 µg/mL | MIC Coagulase Negative Staphylococcus (GC 4548) [2]: <0.5 to 1 µg/mL | MIC Coagulase Negative Staphylococcus (GC 4548) [2, 10]: <0.5 to 1 µg/mL | MIC Coagulase Negative Staphylococcus (GC 4549) [2]: 0.5 to 1 µg/mL | MIC Coagulase Negative Staphylococcus (GC 4549) [2, 10]: 0.5 to 1 µg/mL | MIC Coagulase Negative Staphylococcus (GC 4551) [2]: <0.5 to 1 µg/mL | MIC Coagulase Negative Staphylococcus (GC 4551) [2, 10]: <0.5 to 1 µg/mL | MIC Coagulase Negative Staphylococcus (GC 6257) [2]: 0.5 to 1 µg/mL | MIC Coagulase Negative Staphylococcus (GC 6257) [2, 10]: 0.5 to 1 µg/mL | MIC Enterococcus avium (GC 4558) ([3]; Enterococcus avium (GC 4558)): 1 to 2 µg/mL | MIC Enterococcus faecalis (ATCC 29212) ([3]; Enterococcus faecalis (ATCC 29212)): 1 to 2 µg/mL | MIC Enterococcus faecalis (GC 2242) ([3]; Enterococcus faecalis (GC 2242)): 0.5 to 2 µg/mL | MIC Enterococcus faecalis (GC 2691) ([3]; Enterococcus faecalis (GC 2691)): 1 to 2 µg/mL | MIC Enterococcus faecalis (GC 3059) ([3]; Enterococcus faecalis (GC 3059)): 1 to 2 µg/mL | MIC Enterococcus faecalis (GC 4552) ([3]; Enterococcus faecalis (GC 4552)): 1 to 2 µg/mL | MIC Enterococcus faecalis (GC 4553) ([3]; Enterococcus faecalis (GC 4553)): 1 to 2 µg/mL | MIC Enterococcus faecalis (GC 4554) ([3]; Enterococcus faecalis (GC 4554)): 1 to 2 µg/mL | MIC Enterococcus faecalis (GC 6189) ([3]; Enterococcus faecalis (GC 6189)): 1 to 2 µg/mL | MIC Enterococcus faecium (GC 2243) ([3]; Enterococcus faecium (GC 2243)): 1 to 2 µg/mL | MIC Enterococcus faecium (GC 4556) ([3]; Enterococcus faecium (GC 4556)): 0.5 to 2 µg/mL | MIC Enterococcus faecium (GC 4557) ([3]; Enterococcus faecium (GC 4557)): 1 to 2 µg/mL | MIC Enterococccus avium (GC 4558) ([3]; 5×10^5 CFU/mL): 1 to 2 µg/mL | MIC Enterococccus faecalis (ATCC 29212) ([3]; 5×10^5 CFU/mL): 1 to 2 µg/mL | MIC Enterococccus faecalis (GC 2691) ([3]; 5×10^5 CFU/mL): 1 to 2 µg/mL | MIC Enterococccus faecalis (GC 3059) ([3]; 5×10^5 CFU/mL): 1 to 2 µg/mL | MIC Enterococccus faecalis (GC 4552) ([3]; 5×10^5 CFU/mL): 1 to 2 µg/mL | MIC Enterococccus faecalis (GC 4553) ([3]; 5×10^5 CFU/mL): 1 to 2 µg/mL | MIC Enterococccus faecalis (GC 4554) ([3]; 5×10^5 CFU/mL): 1 to 2 µg/mL | MIC Enterococccus faecalis (GC 6189) ([3]; 5×10^5 CFU/mL): 1 to 2 µg/mL | MIC Enterococccus faecium (GC 2243) ([3]; 5×10^5 CFU/mL): 1 to 2 µg/mL | MIC Enterococccus faecium (GC 4556) ([3]; 5×10^5 CFU/mL): 0.5 to 2 µg/mL | MIC Enterococccus faecium (GC 4557) ([3]; 5×10^5 CFU/mL): 1 to 2 µg/mL | MIC Enterococcus faecalis (GC 2242) ([3]; 5×10^5 CFU/mL): 0.5 to 2 µg/mL | MIC Escherichia coli (ATCC 25922) [4]: 16 to 32 µg/mL | MIC Escherichia coli (GC 4559) [4]: 32 µg/mL (≈ 22.4 µM) | MIC Escherichia coli (GC 4560) [4]: 0.5 to 2 µg/mL | median effective dose (ED50), Staphylococcus aureus-SMITH (GC 4543) [5]: 0.04-0.08 | median effective dose (ED50), Enterococcus faecalis (GC 6189) [6]: 1.8-1.96 | median effective dose (ED50), Streptococcus pneumoniae (GC 1894) [7]: 0.04 mg/kg | Anatomical Pathology (Day 10), Heart [8]: +++ | Anatomical Pathology (Day 10), Kidney [8]: +++ | Clinical Chemistry (Day 10) % of Control, ALT [9]: +480% | Clinical Chemistry (Day 10) % of Control, AST [9]: +205% | Clinical Chemistry (Day 10) % of Control, BUN [9]: +35%
